Experimental data reported in BindingDB's records for doi:10.1021/jm960078j (University of Arizona, 1996).

experiment: Binding affinity towards Opioid receptor delta 1 was determined in guinea pig whole brain using [3H][4''-Cl-Phe4]-DPDPE as radioligand

Going from `CCCC[C@@H](C(=O)N[C@@H](CC(=O)O)C(=O)N[C@@H](Cc1ccccc1)C(N)=O)N(C)C(=O)[C@@H](NC(=O)CNC(=O)[C@@H](Cc1ccccc1)NC(=O)[C@H](Cc1ccc(O)cc1)NC(=O)[C@@H](N)CC(=O)O)[C@@H](C)c1c[nH]c2ccccc12` to `CCCC[C@@H](C(=O)N[C@@H](CC(=O)O)C(=O)N[C@@H](Cc1ccccc1)C(N)=O)N(C)C(=O)[C@H](NC(=O)CNC(=O)[C@@H](Cc1ccccc1)NC(=O)[C@H](Cc1ccc(O)cc1)NC(=O)[C@@H](N)CC(=O)O)[C@@H](C)c1c[nH]c2ccccc12`, the IC50 rises from 140 nM to 1050 nM (7.5-fold).

Compared with `CCCC[C@@H](C(=O)N[C@@H](CC(=O)O)C(=O)N[C@@H](Cc1ccccc1)C(N)=O)N(C)C(=O)[C@H](NC(=O)CNC(=O)[C@@H](Cc1ccccc1)NC(=O)[C@H](Cc1ccc(O)cc1)NC(=O)[C@@H](N)CC(=O)O)[C@H](C)c1c[nH]c2ccccc12`, `CCCC[C@@H](C(=O)N[C@@H](CC(=O)O)C(=O)N[C@@H](Cc1ccccc1)C(N)=O)N(C)C(=O)[C@H](Cc1c[nH]c2ccccc12)NC(=O)CNC(=O)[C@@H](Cc1ccccc1)NC(=O)[C@H](Cc1ccc(O)cc1)NC(=O)[C@@H](N)CC(=O)O` [(3S)-3-[(2S)-2-[(2S)-2-{2-[(2R)-2-[(2S)-2-[(3S)-3-amino-3-formamidopropanoic acid]-3-(4-hydroxyphenyl)propanamido]-3-phenylpropanamido]acetamido}-3-(1H-indol-3-yl)-N-methylpropanamido]hexanamido]-3-{[(1S)-1-carbamoyl-2-phenylethyl]carbamoyl}propanoic acid] is 28-fold lower in IC50: 820 nM for the first, 29 nM for the second. The second is the more potent here.
